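Step 1: Grow cells in 96-well plates. Step 2: Expose to compound for 48 hours at 5 concentrations. Step 3: Interpolate endpoints linearly; if unreached, use highest concentration. At the TGI there is no net growth.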
Columns and labels:
Experiment in all cases: NCI tumour cell line growth inhibition, 48 h
A498 renal = system: A498 renal
HCT-116 colon = system: HCT-116 colon
HT29 colon = system: HT29 colon
MCF7 breast = system: MCF7 breast
NCI-H226 lung = system: NCI-H226 lung
NCI-H23 lung = system: NCI-H23 lung
T-47D breast = system: T-47D breast
UACC-257 melanoma = system: UACC-257 melanoma
HCT-15 colon = system: HCT-15 colon
SK-OV-3 ovarian = system: SK-OV-3 ovarian
TK-10 renal = system: TK-10 renal

Row | SMILES | TGI (A498 renal) [µM] | TGI (HCT-116 colon) [µM] | TGI (HT29 colon) [µM] | TGI (MCF7 breast) [µM] | TGI (NCI-H226 lung) [µM] | TGI (NCI-H23 lung) [µM] | TGI (T-47D breast) [µM] | TGI (UACC-257 melanoma) [µM] | TGI (HCT-15 colon) [µM] | TGI (SK-OV-3 ovarian) [µM] | TGI (TK-10 renal) [µM]
1 | COc1ccc(C2=NNC(c3cc4cc(Br)ccc4nc3Cl)C2)cc1 (stereo not given) | > 25 | > 25 | > 25 | > 25 | 11.8 | > 25 | > 25 | > 25 | – | – | –
2 | S=C(N/N=C(\C(=N/NC(=S)N1CCCCC1)c1ccccn1)c1ccccn1)N1CCCCC1 | 90.1 | > 100 | > 100 | > 100 | > 100 | > 100 | – | > 100 | > 100 | > 100 | > 100
3 | COc1cc([C@@H]2c3cc4c(cc3[C@@H](c3c(O)cc(O)c5c3O[C@H](c3ccc(O)c(O)c3)[C@H](OC(=O)c3cc(O)c(O)c(O)c3)C5)[C@H]3COC(=O)[C@H]23)OCO4)cc(OC)c1O | > 100 | > 100 | 65.3 | > 100 | – | > 100 | > 100 | > 100 | > 100 | > 100 | > 100
4 | COc1ccc(-c2nc(-c3cnccn3)n(Cc3ccccc3)n2)cc1 | – | > 100 | > 100 | > 100 | – | > 100 | > 100 | > 100 | > 100 | > 100 | –
5 | CC(C)(C)OC(=O)n1c(Cl)c(C=O)c2ccccc21 | > 100 | – | > 100 | – | – | 47 | > 100 | 67.3 | 70.4 | > 100 | 53.4
6 | CO[C@]12CC(=O)C3(C(C[C@H]4CC5CC[C@H]6C[C@@H](OC(C)=O)CC[C@]6(OC(C)=O)C5C[C@@]43C)C1)C1C[C@H]3[C@@H]4CC[C@H]5C[C@@H](OC(C)=O)CC[C@]5(OC(C)=O)[C@H]4CC[C@]3(C)C12 (stereo not given in full) | > 100 | > 100 | > 100 | > 100 | – | > 100 | > 100 | > 100 | > 100 | > 100 | > 100
7 | COc1ccc(C2C(C#N)=C(S)N(C3OC(CO)C(O)C(O)C3O)C(C)=C2C(C)=O)cc1 (stereo not given) | > 100 | > 100 | > 100 | > 100 | > 100 | > 100 | 97.1 | > 100 | > 100 | – | > 100
8 | CC(=O)O[C@H]1C[C@](C)(O)[C@@]23CC([C@@H](OC(=O)C(C)(C)O)[C@@H](OC(C)=O)C2(COC(=O)c2ccccc2)[C@H]1OC(C)=O)C(C)(C)O3 (stereo not given in full) | > 100 | > 100 | > 100 | > 100 | – | > 100 | > 100 | > 100 | > 100 | > 100 | > 100
9 | O=C1CC(C(COCc2ccccc2)OCc2ccccc2)CC(=O)N1 (stereo not given) | – | > 100 | > 100 | > 100 | > 100 | > 100 | > 100 | > 100 | > 100 | – | > 100
10 | COc1cc(S(=O)(=O)Nc2ccc(-c3csc(N4C(=O)C(C)SC4c4ccccc4)n3)cc2)ccc1Cl (stereo not given) | > 100 | > 100 | > 100 | 43.2 | > 100 | > 100 | 54.2 | > 100 | > 100 | – | –
11 | O=S(c1ccc(Cl)cc1)c1ccccc1C1=NCCN1 (stereo not given) | – | > 100 | > 100 | > 100 | > 100 | > 100 | > 100 | > 100 | > 100 | > 100 | > 100
12 | CN(C)C=NCC(O)c1ccccc1 (stereo not given) | > 100 | > 100 | > 100 | > 100 | > 100 | > 100 | > 100 | – | > 100 | > 100 | > 100
13 | O=C(CC(c1ccccc1)C(C(=O)c1ccncc1)C(CC(=O)c1ccncc1)c1ccccc1)c1ccncc1 (stereo not given) | > 100 | > 100 | > 100 | – | > 100 | > 100 | > 100 | > 100 | > 100 | 61.1 | > 100
14 | N#Cc1ccc2[nH]c3c(c2c1)CC(=O)Nc1ccccc1-3 | > 100 | > 100 | > 100 | > 100 | > 100 | > 100 | > 100 | > 100 | > 100 | – | > 100
15 | O=S1(=O)OCCCOS(=O)(=O)C1(Br)Br | – | > 100 | > 100 | > 100 | > 100 | > 100 | > 100 | > 100 | > 100 | > 100 | > 100
16 | COc1cccc([C@@H]2CC(=O)c3cc4c(cc3N2)OCO4)c1 | > 100 | > 100 | – | > 100 | > 100 | – | > 100 | > 100 | > 100 | > 100 | > 100
17 | N#CCc1nc2cc(C(F)(F)F)ccc2s1 | > 100 | 95.2 | > 100 | – | > 100 | 94.8 | > 100 | > 100 | > 100 | > 100 | > 100
18 | C1=CN2C[n+]3ccc4ccccc4c3N=C2c2ccccc21 | – | > 100 | 10.4 | 3.71 | – | 21.4 | 5.29 | 20.7 | > 100 | 47.8 | 43
19 | CC(=O)N1C(Nc2cccc3nc(C)ccc23)CCN1c1ccccc1 (stereo not given) | – | > 10 | > 10 | > 10 | > 10 | > 10 | > 10 | > 10 | > 10 | > 10 | > 10
20 | OC(C1CCCCCCCCCC1)C(O)C1CCCCCCCCCC1 (stereo not given) | – | > 100 | > 100 | > 100 | > 100 | > 100 | > 100 | > 100 | > 100 | > 100 | > 100

Reference: PubChem BioAssay (NCI)
